Measurements as given in US20090312238A1, “Protection Against Oxidative Damage in Cells” (Florida Atlantic University, priority 2006, published 2009).

Tests used:
hMsrB3 = molecular target: T1, hMsrB3 (Homo sapiens, UniProt Q8IXL7); assay: Colorimetric assay for Msr activity based on the reduction of DABS-met(o); type: biochemical; settings: for activity of chelating agent in place of EDTA with Zn-MT: EGTA 5 or 20 mM, deferoxamine 5 mM, zincon 500 μM
T1 construct: made in house; host or cells: BL21 E. coli
T1 sequence (Q8IXL7 33-192): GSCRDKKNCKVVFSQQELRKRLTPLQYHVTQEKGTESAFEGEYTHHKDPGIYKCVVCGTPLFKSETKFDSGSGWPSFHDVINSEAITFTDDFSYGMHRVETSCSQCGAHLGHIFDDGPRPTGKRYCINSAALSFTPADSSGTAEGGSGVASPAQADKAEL
Protocol: (§1) The reaction mixture (200 μl) to measure Msr activity contained 100 mM Tris-Cl pH 7.4, 100 nmoles of the indicated DABS-met(o) epimer (see Materials), either 15 mM DTT or the Trx regenerating system (Trx, 10 μg, Trx reductase, 2.4 μg, NADPH, 500 μM) and Msr enzyme as indicated. When the liver fractions (Zn-MT, T or T(o)) were tested, DTT was omitted and the Trx reducing system and 5 mM EDTA were added as indicated. Incubations were for 60 minutes at 37° C. unless noted otherwise. […] The quantitation of DABS-met formed employed a slight modification of an extraction procedure previously described by Etienne et al (Etienne, F., Resnick, L., Sagher, D., Brot, N. & Weissbach, H. (2003) Biochem Biophys Res Commun 312, 1005-1010) for the reduction of sulindac to sulindac sulfide by MsrA. The reactions were stopped by the addition of 200 μl of 1 M sodium acetate pH 6.0, followed by the addition of 100 μL of acetonitrile and 1 ml of benzene. After thorough shaking and centrifugation, the optical density of the benzene layer was read at 436 nm. […] Unless indicated otherwise, the results are presented as nmoles DABS-met formed in 60 minutes.

hMsrB2 = molecular target: T2, hMsrB2 (Homo sapiens, UniProt Q9Y3D2); assay: as above; type: biochemical; settings: for nmoles DABS-met: hMsrB2 2.7 μg
T2 construct: made in house; host or cells: E. coli
Protocol: as §1

bMsrA = molecular target: T3, bMsrA (Bos taurus, UniProt P54149); assay: as above; type: biochemical, bovine
T3 construct: made in house; host or cells: E. coli
T3 sequence (P54149 21-233): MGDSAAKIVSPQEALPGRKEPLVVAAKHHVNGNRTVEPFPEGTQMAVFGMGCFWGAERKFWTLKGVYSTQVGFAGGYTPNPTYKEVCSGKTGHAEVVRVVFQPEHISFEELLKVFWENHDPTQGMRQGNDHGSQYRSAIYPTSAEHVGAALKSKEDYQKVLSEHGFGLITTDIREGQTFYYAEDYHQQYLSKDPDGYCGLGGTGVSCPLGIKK
Protocol: as §1

eMsrA = molecular target: T4, eMsrA (Escherichia coli, UniProt P0A744); assay: as above; type: biochemical, E. coli; settings: for nmoles DABS-met: eMsrA 1.6 μg
T4 construct: made in house; host or cells: E. coli
Protocol: as §1

eMsrB [1] = molecular target: T5, eMsrB (Escherichia coli, UniProt P0A746); assay: as above; type: biochemical, E. coli
T5 construct: made in house; host or cells: E. coli
Protocol: as §1

Zn-MT = settings: appearance of free SH groups
Protocol: Briefly, purified Zn-MT was dialyzed against 10 mM HCl (pH 2.0) containing 150 mM NaCl for 12 hours at 4° C. The protein after dialysis is reduced, metal-free T and appears stable when left at pH 2.0. To study the activity of T in the Msr system, T was neutralized and added to the reaction mixtures immediately before the incubations were initiated. To oxidize T, 0.75 volumes of 50 mM Tris base were added to the T sample to bring the pH to 8.5. Under these conditions, approximately 50% of the sulfhydryls will become oxidized after 4 hours at room temperature or 2 hours at 37° C. With longer incubations, the T(o) started to precipitate.

Msr enzymes = assay: Msr activity assay, statements on the Msr enzymes as a group; type: biochemical; settings: no Trx system or T
Protocol: as §1

MsrA = molecular target: T6, MsrA (Rattus norvegicus, UniProt Q923M1); assay: MsrA activity in cardiomyocytes, reduction of sulindac to sulindac sulfide; type: cell-based; settings: for amount of product (sulindac sulfide): primary neonatal rat cardiomyocytes, 400 μM sulindac
T6 construct: endogenous in cells; host or cells: primary neonatal rat cardiomyocytes
T6 sequence (Q923M1 21-233): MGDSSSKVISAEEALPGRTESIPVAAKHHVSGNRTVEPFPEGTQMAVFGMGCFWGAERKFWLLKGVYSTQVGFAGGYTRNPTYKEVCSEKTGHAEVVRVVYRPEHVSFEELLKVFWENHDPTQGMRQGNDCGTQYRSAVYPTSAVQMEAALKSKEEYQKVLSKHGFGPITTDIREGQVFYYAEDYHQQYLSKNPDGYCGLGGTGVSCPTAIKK
Protocol: FIG. 10 is a graph showing selenocystamine (SeCm) can enhance MsrA activity in cardiomyocytes. Cardiomyocytes were incubated with 400 μM sulindac and indicated concentration of selenocystamine. Briefly, primary neonatal rat cardiomyocytes (approximately 10^6 cells per treatment) were incubated with sulindac and two different concentrations of selenocystamine. Sulindac is a substrate for MsrA, and the amount of the reduced product, sulindac sulfide, indicates the amount of MsrA activity. The amount of product is 2.7, 3.7 and 5.6 picomoles for 0, 5 μM and 50 μM selenocystamine, respectively. This amounts to a 37% and 107% stimulation.

T(o) = molecular target: T7, T(o) (Bos taurus, UniProt P68301); assay: Reduction of T(o) by Trx, oxidation of NADPH followed at 340 nm; type: biochemical, bovine; settings: FIG. 4; 100 μM NADPH, 26 μg Trx, 6 μg TrxB, 28 μg partially-oxidized T
T7 construct: Fresh bovine liver was homogenized in 3 volumes of 50 mM Tris, pH 7.4; from tissue; host or cells: bovine liver
Protocol: To study the reduction of T(o) by Trx, the reaction mixtures contained, in a total volume of 1 ml, 100 μM NADPH, 26 μg Trx, 6 μg TrxB and 28 μg of partially-oxidized T (see above). The oxidation of NADPH was followed at 340 nm at room temperature.

eMsrB [2] = molecular target: T8, eMsrB (Escherichia coli, UniProt P0A746); assay: Colorimetric assay for Msr activity based on the reduction of DABS-met(o); type: biochemical, E. coli; remark: listed apart in the source
T8 construct: made in house; host or cells: E. coli
T8 sequence (P0A746 whole entry, looked up): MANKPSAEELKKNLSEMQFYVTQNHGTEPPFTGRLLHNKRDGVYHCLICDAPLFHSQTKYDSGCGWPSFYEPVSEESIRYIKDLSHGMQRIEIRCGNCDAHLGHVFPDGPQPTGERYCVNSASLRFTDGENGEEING
Protocol: as §1

[3] = Table 1, DABS-met-R-(o), 15 mM DTT or Trx regenerating system, 60 minutes at 37° C.
[4] = Table 2, 20 nmoles Zn-MT with 5 mM EDTA, or 15 mM DTT
[5] = Table 1, hMsrB3 2.3 μg, DABS-met-R-(o), 15 mM DTT or Trx regenerating system, 60 minutes at 37° C.
[6] = Table 1, bMsrA 2 μg, DABS-met-S-(o), 15 mM DTT or Trx regenerating system, 60 minutes at 37° C.
[7] = Table 1, DABS-met-S-(o), 15 mM DTT or Trx regenerating system, 60 minutes at 37° C.
[8] = Table 1, eMsrB 2.7 μg, DABS-met-R-(o), 15 mM DTT or Trx regenerating system, 60 minutes at 37° C.
[9] = mammalian Trx and mammalian Trx reductase

T4 sequence (P0A744 whole entry): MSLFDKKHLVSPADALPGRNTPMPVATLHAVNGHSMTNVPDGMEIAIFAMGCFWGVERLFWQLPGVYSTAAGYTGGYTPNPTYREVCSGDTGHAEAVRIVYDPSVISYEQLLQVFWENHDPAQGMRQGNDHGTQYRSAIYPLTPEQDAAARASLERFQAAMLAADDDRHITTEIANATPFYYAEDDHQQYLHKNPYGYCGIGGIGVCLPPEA
T2 sequence (Q9Y3D2 21-182): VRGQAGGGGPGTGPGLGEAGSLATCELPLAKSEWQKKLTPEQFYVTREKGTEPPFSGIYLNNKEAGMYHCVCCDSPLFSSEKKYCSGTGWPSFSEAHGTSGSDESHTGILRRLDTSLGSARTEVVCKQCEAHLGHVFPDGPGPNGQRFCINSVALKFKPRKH
T7 sequence (P68301 whole entry): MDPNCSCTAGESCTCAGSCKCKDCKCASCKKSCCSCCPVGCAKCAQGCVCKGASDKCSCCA

## c1cnc2c(c1)ccc1cccnc12 [1,10-phenanthroline]
hMsrB3; 5 mM
  activity relative to EDTA, chelating agent in place of EDTA with Zn-MT: about 40%

## O[C@@H](CS)[C@@H](O)CS [DTT, reference compound]
hMsrB2; [3]
  nmoles DABS-met: 31.3 nmol
hMsrB2; [4]
  nmoles DABS-met: 27.1 nmol
hMsrB3; [5]
  nmoles DABS-met: 53.8 nmol
hMsrB3; Table 2, hMsrB3 2.3 μg, 20 nmoles Zn-MT with 5 mM EDTA, or 15 mM DTT
  nmoles DABS-met: 53.7 nmol
hMsrB3; experiment of Table 3, hMsrB3 2.3 μg, 15 mM DTT
  nmoles DABS-met formed: 52.7 nmol
bMsrA; [6]
  nmoles DABS-met: 30.0 nmol
bMsrA; Table 2, bMsrA 2.0 μg, 20 nmoles Zn-MT with 5 mM EDTA, or 15 mM DTT
  nmoles DABS-met: 38.9 nmol
eMsrA; [7]
  nmoles DABS-met: 46.2 nmol
eMsrA; [4]
  nmoles DABS-met: 45.7 nmol
eMsrB [1]; [8]
  nmoles DABS-met: 11.1 nmol
eMsrB [1]; Table 2, eMsrB 5.4 μg, 20 nmoles Zn-MT with 5 mM EDTA, or 15 mM DTT
  nmoles DABS-met: 27.8 nmol

## O=C(O)CN(CCN(CC(=O)O)CC(=O)O)CC(=O)O [EDTA, ethylenediaminetetraacetic acid]
Zn-MT
  time for removal of zinc from Zn-MT: less than 10 minutes
  zinc removed from Zn-MT: > 90%
hMsrB3; EDTA alone
  effect of EDTA by itself on hMsrB3 activity: no significant effect
hMsrB3; heated liver S-100 as reducing source
  levels of EDTA giving optimal activity: above 2.5 mM

## O=C(O)CN(CCOCCOCCN(CC(=O)O)CC(=O)O)CC(=O)O [EGTA]
hMsrB3
  activity of chelating agent in place of EDTA with Zn-MT: inactive

## NCC[Se][Se]CCN [SeC, selenocystamine]
Msr enzymes
  activity of SeC by itself: no activity
hMsrB3; FIG. 7, NADPH and Trx reductase or T as primary reducing agent
  final concentration of SeC at maximal stimulation: 50 µM
bMsrA; complete Trx system, bMsrA
  increase of activity in the presence of SeC: more than 3 fold
eMsrA; E. coli enzymes
  stimulation by SeC above the Trx system alone: less than a twofold stimulation
eMsrA; complete Trx system, eMsrA
  stimulation by SeC: 10-20%
eMsrB [1]; E. coli enzymes
  stimulation by SeC above the Trx system alone: less than a twofold stimulation
eMsrB [1]; complete Trx system, eMsrB
  stimulation by SeC: 10-20%
MsrA; 5 μM selenocystamine versus 0
  stimulation of MsrA activity: 37%
MsrA; 50 μM selenocystamine versus 0
  stimulation of MsrA activity: 107%
MsrA; 5 μM selenocystamine
  amount of product (sulindac sulfide): 3.7 picomoles
MsrA; 50 μM selenocystamine
  amount of product (sulindac sulfide): 5.6 picomoles

## CC(=O)N(O)CCCCCNC(=O)CCC(=O)N(O)CCCCCNC(=O)CCC(=O)N(O)CCCCCN [deferoxamine]
hMsrB3
  activity of chelating agent in place of EDTA with Zn-MT: inactive

## O=C(O)c1ccccc1NN=C(N=Nc1cc(S(=O)(=O)O)ccc1O)c1ccccc1 [zincon]
hMsrB3
  activity of chelating agent in place of EDTA with Zn-MT: inactive

## Trx: thioredoxin overexpressed and purified from E. coli; used as Trx regenerating system with Trx reductase and NADPH
T(o)
  oxidation of NADPH: dependent on Trx, Trx reductase and T(o)
hMsrB2; Table 1, hMsrB2
  Ratio Trx/DTT: 0.03
hMsrB2; [3]
  nmoles DABS-met: 0.8 nmol
hMsrB2; hMsrB2
  activity with Trx relative to the activity seen with DTT: less than 10%
hMsrB3; Table 1, hMsrB3
  Ratio Trx/DTT: 0.03
hMsrB3; [5]
  nmoles DABS-met: 1.7 nmol
hMsrB3; Table 3 line 2, hMsrB3 2.3 μg, no T(o), Trx + NADPH + Trx reductase
  nmoles DABS-met: 2.4 nmol
hMsrB3; hMsrB3
  activity with Trx relative to the activity seen with DTT: less than 10%
bMsrA; Table 1, bMsrA
  Ratio Trx/DTT: 0.53
bMsrA; [6]
  nmoles DABS-met: 15.8 nmol
eMsrA; Table 1, eMsrA
  Ratio Trx/DTT: 1.0
eMsrA; [7]
  nmoles DABS-met: 46.8 nmol
eMsrB [2]; Table 1, eMsrB
  Ratio Trx/DTT: 5.4
eMsrB [2]; [8]
  nmoles DABS-met: 60.3 nmol

B1: mammalian Trx: reduced mammalian Trx with mammalian Trx reductase; human Trx from Sigma, rat Trx reductase (TR3) (protein, UniProt P10599 2-105, looked up)
Thioredoxin: VKQIESKTAFQEALDAAGDKLVVVDFSATWCGPCKMIKPFFHSLSEKYSNVIFLEVDVDDCQDVASECEVKCMPTFQFFKKGQKVGEFSGANKEKLEATINELV
modifications: with rat Trx reductase
hMsrB3; [9]
  activity with reduced mammalian Trx: very poor activity
eMsrA; [9]
  use of Trx from either source: efficiently used
eMsrB [2]; [9]
  use of Trx from either source: efficiently used
